In PubChem BioAssay (NCI):
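96-well plates; 48 h exposure; 5 concentrations. Endpoints by linear interpolation between flanking doses. Not reached: highest tested concentration assigned. The concentration for 50% growth inhibition is given as GI50. At the TGI there is no net growth.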

Legend:
Test in all cases: DTP human tumour cell line panel, 48 h
[1] = tested on: SF-268 CNS
[2] = tested on: SNB-78 CNS
[3] = tested on: DMS 273 small cell lung
[4] = tested on: M14 melanoma
[5] = tested on: SNB-19 CNS
[6] = tested on: UACC-62 melanoma
[7] = tested on: HCC-2998 colon
[8] = tested on: LXFL 529 NSCLC
[9] = tested on: MALME-3M melanoma
[10] = tested on: M19-MEL melanoma
[11] = tested on: OVCAR-8 ovarian
[12] = tested on: DU-145 prostate

Row | Compound | TGI [1] [µM] | TGI [2] [µM] | TGI [3] [µM] | TGI [4] [µM] | TGI [5] [µM] | TGI [6] [µM] | TGI [7] [µM] | TGI [8] [µM] | TGI [9] [µM] | TGI [10] [µM] | TGI [11] [µM] | GI50 [12] [µM] | TGI [12] [µM] | GI50 [1] [µM] | GI50 [4] [µM] | GI50 [5] [µM] | GI50 [6] [µM] | GI50 [7] [µM] | GI50 [9] [µM] | GI50 [11] [µM]
1 | COC1(OC)c2ccccc2C2(O)c3ccccc3C(=O)C12 (stereo unspecified) | > 100 | > 100 | > 100 | > 100 | > 100 | > 100 | > 100 | > 100 | > 100 | > 100 | > 100 | – | – | – | – | – | – | – | – | –
2 | CN(Cc1ccccc1)C1(N(C)Cc2ccccc2)CC1 | > 100 | > 100 | > 100 | > 100 | > 100 | > 100 | > 100 | > 100 | > 100 | > 100 | > 100 | – | – | – | – | – | – | – | – | –
3 | Cc1nn(C)c(=O)c2nn(-c3ccccc3)c(C)c12 | > 100 | > 100 | > 100 | > 100 | > 100 | > 100 | > 100 | > 100 | > 100 | > 100 | > 100 | – | – | – | – | – | – | – | – | –
4 | O=C1CC(c2c[nH]c3ccccc23)C(=O)N1c1ccccc1 (stereo unspecified) | – | > 100 | > 100 | > 100 | – | > 100 | > 100 | > 100 | > 100 | > 100 | > 100 | – | – | – | – | – | – | – | – | –
5 | CC(C)(C)C(=O)OCC(COC(=O)C(C)(C)C)[N+](=O)[O-] | > 100 | – | > 100 | > 100 | > 100 | > 100 | > 100 | > 100 | > 100 | > 100 | > 100 | – | – | – | – | – | – | – | – | –
6 | COc1cc(/C=C2\CCc3ccccc3C2=O)cc(OC)c1OC | 30.3 | 74.1 | 24.2 | 30 | 29.2 | 27.5 | 32.2 | 29.5 | 32.9 | 30 | 29.8 | – | – | – | – | – | – | – | – | –
7 | CC1=N/C(=C\c2cccc3ccccc23)C(=O)O1 | > 100 | > 100 | – | > 100 | > 100 | > 100 | > 100 | > 100 | > 100 | > 100 | > 100 | – | – | – | – | – | – | – | – | –
8 | CC(C)(C)n1cc(-c2ccnc(NCCNS(=O)(=O)c3cccc4ccccc34)c2)c(-c2cccc(F)c2)n1 | > 100 | – | – | 48.2 | > 100 | 47.7 | 37.9 | – | 36.8 | – | > 100 | 26.7 | > 100 | 40.3 | 11.7 | 34.9 | 17.3 | 13.2 | 15.3 | 26.7
9 | COC(=O)C(=O)C(C#N)c1ccc(Cl)c(Cl)c1 (stereo unspecified) | > 100 | > 100 | > 100 | > 100 | – | > 100 | – | > 100 | > 100 | > 100 | – | – | – | – | – | – | – | – | – | –
10 | CC(C)[C@@H](CS(=O)(=O)C(C)C)N1C(=O)[C@@](C)(CC(=O)O)C[C@H](c2cccc(Cl)c2)[C@H]1c1ccc(Cl)cc1 | > 100 | – | – | 59.6 | 66.5 | 11.3 | 37.7 | – | 6.91 | – | > 100 | 21.8 | > 100 | 20.8 | 14.1 | 14.6 | 0.333 | 16.7 | 0.178 | 13.5
11 | C=C1CO[C@@H]2C[C@@H]1CCC1(C)OC1CC/C(C)=C/CC[C@@]2(C)O (stereo partly specified) | > 100 | – | – | > 100 | > 100 | > 71.2 | > 84 | – | > 100 | – | > 100 | 16.1 | 31.2 | 48.6 | 44.1 | > 85.9 | 28.2 | 43.1 | 48.8 | 39.8
12 | O=c1c2cccnc2ncn1CCCN1CCOCC1 | > 100 | > 100 | > 100 | > 100 | > 100 | > 100 | > 100 | > 100 | > 100 | > 100 | > 100 | – | – | – | – | – | – | – | – | –
13 | Cc1cccc(N2C(=O)C(=O)C(c3nc4ccccc4s3)C(=O)C2=O)c1C | > 100 | > 100 | > 100 | > 100 | > 100 | > 100 | > 100 | > 100 | > 100 | > 100 | > 100 | – | – | – | – | – | – | – | – | –
14 | CCOC(=O)c1cnc2c(cnn2CC)c1NN=C(C)C | > 100 | – | – | > 100 | > 100 | > 100 | > 100 | – | > 100 | – | > 100 | 29.5 | > 100 | 38.9 | > 100 | 32.6 | 45.3 | > 100 | > 100 | 55.1
15 | C=C1C(=O)O[C@H]2[C@H]1CC/C(COC(=O)C(=O)c1cn(C)c3ccc(OC)cc13)=C\CC[C@@]1(C)O[C@@H]21 | 12.5 | – | – | 8.27 | 21.8 | 7.08 | 9.72 | – | 9.91 | – | 20.4 | 6.67 | 15.5 | 5.71 | 3.22 | 9.07 | 2.8 | 5.14 | 5.62 | 6.76
16 | O=C1CCC(=O)C12CCc1cccc(O)c12 | > 100 | > 100 | > 100 | > 100 | – | > 100 | > 100 | > 100 | > 100 | > 100 | > 100 | – | – | – | – | – | – | – | – | –
17 | Cc1nc2ccc(NCCN(C)C)c3c(=O)c4cc(O)ccc4n1c23 | 5.43 | – | 1.76 | 15.9 | 7.06 | 5.63 | 1.71 | 11.1 | 9.06 | 9.27 | 2.37 | – | 4.93 | – | – | – | – | – | – | –
18 | COc1ccc(S(=O)(=O)N/N=C(\C)CN2C(=O)c3ccccc3C2=O)cc1 | > 100 | > 100 | > 100 | > 100 | > 100 | > 100 | > 100 | > 100 | > 100 | > 100 | > 100 | – | – | – | – | – | – | – | – | –
19 | Cn1cnc([N+](=O)[O-])c1Sc1nnc(C(F)(F)F)n1C | > 100 | > 100 | 87.5 | 37.2 | > 100 | 33.5 | > 100 | 27.8 | 44 | 37.2 | 67.8 | – | – | – | – | – | – | – | – | –
